The values below come from ChEMBL document CHEMBL1221365, “Evelynin, a cytotoxic benzoquinone-type Retro-dihydrochalcone from Tacca chantrieri” (J Nat Prod, 2010).

Calls of active or inactive are those of the source. No cut-off for these calls is given here.

For experiment [1], the system named is HeLa. In words: Inhibition of beta-tubulin assembly in human HeLa cells assessed as effect on microtubule density up to 40 uM after 18 hrs by immunofluorescence assay. The experiment is classed as cell-based.
Experiment [2] relates to HeLa. In words: Cytotoxicity against human HeLa cells after 48 hrs by sulforhodamine B assay. The experiment is classed as functional, cell-based. (Sulforhodamine B stains cellular protein and so reports cell mass.)
In experiment [3] the test system is HeLa. The experiment can be described thus: Inhibition of beta-tubulin assembly in human HeLa cells assessed as effect on microtubule density at 5 uM after 18 hrs by immunofluorescence assay. The experiment is classed as cell-based.
In a further experiment the test system is PC-3. The experiment can be described thus: Cytotoxicity against human PC3 cells after 48 hrs by sulforhodamine B assay. The experiment is classed as functional, cell-based. The conditions noted are these: PC-3, 48 h.
Another experiment deals with MDA-MB-231. The experiment can be described thus: Cytotoxicity against human MDA-MB-231 cells after 48 hrs by sulforhodamine B assay. Format: functional, cell-based. The settings on record: MDA-MB-231, 48 h.
A further experiment concerns MDA-MB-435. The experiment can be described thus: Cytotoxicity against human MDA-MB-435 cells after 48 hrs by sulforhodamine B assay. Format: functional, cell-based. The conditions noted are these: MDA-MB-435, 48 h.

What is called IC50 is the concentration that gives 50% inhibition. Lower therefore signals higher potency. Turning to `COC1=CC(=O)C(CCC(=O)c2ccc(OC)c(OC)c2)=C(OC)C1=O` [EVELYNIN], the inhibition entry in the experiment on HeLa [1] and in the experiment with HeLa [3] was “inactive” throughout. Further, the IC50 came out at 6.3 µM with HeLa [2], 4.7 µM with PC-3, 3.9 µM with MDA-MB-231 and 4.1 µM in the experiment with MDA-MB-435.
